Patent US20180000136A1, “BIOLOGICAL INORGANIC COMPOUND COMPLEX HAVING REDUCED OXYGEN AND HIGH REDUCING ABILITY” (priority 2011, published 2018)

Experiments:
LPO-H2O2 reaction = LPO-H2O2 reaction (Bos taurus, UniProt P80025); assay: Compound II formation from the peroxidase-H2O2 reaction (OD 430 nm); assay type: biochemical; conditions: KI at 1 μM
Description: Compound II, however, is relatively stable and can be measured at OD of 430 nm. The compound II level is well maintained after mixing LPO and H2O2 (Referring to FIG. 28). […] Since the compound II is derived from the compound I, the inhibition of compound I is also understandable.

[1] = Degradation of H2O2 in a cell-free system (Amplex red); assay type: biochemical; conditions: 20 μM H2O2, 30 min at 37° C.
Procedure: Then, Amplex red (Invitrogen) is added and incubated for 30 min in a dark room. The absorbance at 560 nm is measured by a microplate reader (Molecular Devices, Sunnyvale, Calif.).

[2] = medication of Graves' disease; Non-patent documents 1 and 2; cited from earlier work

compound II formation (LPO-H2O2 reaction) | Structure (SMILES) | degradation of H2O2 [1] | side-effects [2]
partially inhibits | [I-].[K+] [KI] |  | 
 | Cn1cc[nH]c1=S [MMI, methimazole] | can degrade H2O2 although higher concentration of MMI is required | an allergic reaction, an increase of a variety of enzyme levels in liver, a joint pain and an agranulocytosis in case of a severe condition
 | CCCc1cc(=O)[nH]c(=S)[nH]1 [PTU, propylthiouracil] |  | severe liver damage
